Results published in patent US20090047221A1 (NIPRI LIMITED, priority 2004, published 2009).
pIC50: −log10 of the molar value.

Assays:
Assay in all cases: MTT assay (anti-proliferative activity)
Format in all cases: cell-based
MCF-7 = details: 96 h continual exposure, read-out: IC 50 MCF-7
MDA-MB-468 = details: 96 h continual exposure, read-out: IC 50 MDA-MB-468
MalMe3M = details: 96 h continual exposure, read-out: IC 50 MalMe3M
SkMel28 = details: 96 h continual exposure, read-out: IC 50 SkMel28

Row | pIC50 (MCF-7) | pIC50 (MDA-MB-468) | SMILES | pIC50 (MalMe3M) | pIC50 (SkMel28)
1 | 4.36 | 4.89 | CC(C)CC(NC(=O)c1ccc2c(c1O)C(=O)OC(C)C2)C(=O)OC(C)(C)C (mixture of isomers) [ALM-55, Leucine Tert-Butyl Ester Amide] | 4.64 | 4.10
2 | 5.64 | 5.37 | CCCCC/C=C\C/C=C\C/C=C\CCCCCOC(=O)c1ccc2c(c1O)C(=O)OC(C)C2 (racemic) [ALM-43, γ-Linolenyl Ester] | 4.63 | 4.67
3 | 4.58 | 5.48 | CCCCCCNC(=O)c1ccc2c(c1O)C(=O)OC(C)C2 (racemic) [ALM-49, Hexyl Amide] | 4.18 | 3.98

Row | SMILES | pIC50 (MCF-7) | pIC50 (MDA-MB-468) | pIC50 (MalMe3M) | pIC50 (SkMel28)
4 | CC1(C)Cc2ccc(C(=O)N[C@@H](Cc3ccccc3)C(=O)O)c(O)c2C(=O)O1 [ALM-74, L-Phenyl Alanine Amide of Compound ALM-73] | 5.66 | 5.74 | 5.11 | 4.93
